“And” between values parts separate entries of the source, which are not always exact repeats. Identical values can stand only once.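 Step 1: Grow cells in 96-well plates. Step 2: Expose to compound for 48 hours at 5 concentrations. Step 3: Interpolate endpoints linearly; if unreached, use highest concentration. GI50 = concentration required for 50% inhibition of growth. TGI marks complete inhibition of growth.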
Assays:
Experiment in all cases: NCI tumour cell line growth inhibition, 48 h
[1] = system: HCT-116 colon
[2] = system: M14 melanoma
[3] = system: MALME-3M melanoma
[4] = system: SW-620 colon
[5] = system: UO-31 renal
[6] = system: U251 CNS
[7] = system: RPMI-8226 leukemia
[8] = system: MDA-MB-231 breast
[9] = system: SN12K1 renal
[10] = system: SR leukemia
[11] = system: UACC-62 melanoma
[12] = system: HCT-15 colon
[13] = system: XF 498 CNS
[14] = system: BT-549 breast
[15] = system: K-562 leukemia
[16] = system: HL-60(TB) leukemia
[17] = system: COLO 205 colon
[18] = system: MDA-MB-435
[19] = system: UACC-257 melanoma
[20] = system: RXF 393 renal
[21] = system: OVCAR-4 ovarian
[22] = system: NCI-H23 lung
[23] = system: T-47D breast
[24] = system: OVCAR-5 ovarian
[25] = system: NCI/ADR-RES ovarian
[26] = system: NCI-H522 lung
[27] = system: PC-3 prostate
[28] = system: SNB-78 CNS
[29] = system: TK-10 renal
[30] = system: SNB-19 CNS
[31] = system: SF-295 CNS
[32] = system: SN12C renal
[33] = system: SK-OV-3 ovarian
[34] = system: ACHN renal
[35] = system: CCRF-CEM leukemia
[36] = system: SK-MEL-5 melanoma
[37] = system: NCI-H226 lung
[38] = system: MOLT-4 leukemia
[39] = system: HOP-18 NSCLC
[40] = system: DU-145 prostate
[41] = system: A549 NSCLC
[42] = system: OVCAR-8 ovarian
[43] = system: LOX IMVI melanoma
[44] = system: SK-MEL-28 melanoma
[45] = system: P388 leukemia
[46] = system: HT29 colon
[47] = system: 786-0 renal
[48] = system: SF-268 CNS
[49] = system: KM12 colon
[50] = system: NCI-H460 lung
[51] = system: IGROV1 ovarian
[52] = system: DMS 273 small cell lung
[53] = system: MCF7 breast
[54] = system: SF-539 CNS
[55] = system: OVCAR-3 ovarian
[56] = system: HOP-92 NSCLC
[57] = system: EKVX NSCLC
[58] = system: A498 renal
[59] = system: SNB-75 CNS
[60] = system: DLD-1 colon
[61] = system: HOP-62 NSCLC
[62] = system: HCC-2998 colon
[63] = system: CAKI-1 renal
[64] = system: LXFL 529 NSCLC
[65] = system: RXF-631 renal
[66] = system: SK-MEL-2 melanoma
[67] = system: DMS 114 small cell lung
[68] = system: KM20L2 colon
[69] = system: M19-MEL melanoma
[70] = system: P388/ADR leukemia

## CCCCc1oc2ccccc2c1C(=O)c1cc(I)c(OCCN(CC)CC)c(I)c1
[1]
  GI50: 1.82 µM
  TGI: 3.88 µM and 9.07 µM
[2]
  GI50: 2.18 µM
  TGI: 4.78 µM
[3]
  GI50: 1.86 µM
  TGI: 3.71 µM and 8.57 µM
[4]
  GI50: 1.76 µM
  TGI: 4.13 µM and 9.18 µM
[5]
  GI50: 2.54 µM and 7.07 µM
  TGI: 13.2 µM and 28.4 µM
[6]
  GI50: 1.57 µM
  TGI: 3 µM and 7.73 µM
[7]
  GI50: 1.92 µM
  TGI: 4.91 µM and 9.09 µM
[8]
  GI50: 2 µM
  TGI: 5.18 µM
[9]
  TGI: 7.45 µM
[10]
  GI50: 1.68 µM
  TGI: 4.24 µM
[11]
  TGI: 3.83 µM
[12]
  GI50: 2.06 µM
  TGI: 4.68 µM and 8.21 µM
[13]
  TGI: 8.25 µM
[14]
  GI50: 3.26 µM
  TGI: 9.38 µM
[15]
  TGI: 9.87 µM
[16]
  GI50: 1.93 µM
  TGI: 3.88 µM and 7.09 µM
[17]
  GI50: 1.89 µM
  TGI: 3.4 µM and 7.84 µM
[18]
  GI50: 2.41 µM
  TGI: 6.53 µM
[19]
  GI50: 2.32 µM
  TGI: 6.42 µM and 9.04 µM
[20]
  GI50: 1.26 µM
  TGI: 2.97 µM and 8.79 µM
[21]
  GI50: 3.47 µM
  TGI: 16.2 µM and 20.9 µM
[22]
  GI50: 2.67 µM
  TGI: 8.87 µM and 18 µM
[23]
  GI50: 3.16 µM
  TGI: 12.2 µM
[24]
  GI50: 2.46 µM
  TGI: 7.27 µM and 10.9 µM
[25]
  GI50: 1.94 µM
  TGI: 4.54 µM and 16.5 µM
[26]
  GI50: 1.79 µM
  TGI: 3.48 µM and 12.3 µM
[27]
  GI50: 1.95 µM
  TGI: 8.91 µM
[28]
  TGI: 25 µM
[29]
  GI50: 5.12 µM
  TGI: 17.8 µM
[30]
  GI50: 2.04 µM
  TGI: 5.35 µM and 18.7 µM
[31]
  GI50: 1.88 µM
  TGI: 3.81 µM and 8.35 µM
[32]
  GI50: 3.08 µM
  TGI: 14.8 µM and 27.9 µM
[33]
  GI50: 2.69 µM
  TGI: 6.41 µM and 20.1 µM
[34]
  GI50: 4.14 µM
  TGI: 15.6 µM
[35]
  GI50: 1.82 µM
  TGI: 4.35 µM and 12 µM
[36]
  TGI: 2.76 µM
[37]
  GI50: 2.84 µM
  TGI: 12.7 µM and 8.55 µM
[38]
  GI50: 1.92 µM
  TGI: 4.27 µM and 7.8 µM
[39]
  TGI: 1.29 µM
[40]
  GI50: 5.28 µM
  TGI: 17.8 µM
[41]
  GI50: 3.72 µM
  TGI: 15.8 µM and 70.3 µM
[42]
  GI50: 3.37 µM and 11 µM
  TGI: 13.2 µM and 92.5 µM
[43]
  GI50: 1.49 µM
  TGI: 2.82 µM and 7.86 µM
[44]
  GI50: 1.91 µM
  TGI: 4 µM and 10.1 µM
[45]
  TGI: 11.2 µM
[46]
  GI50: 1.97 µM
  TGI: 5.01 µM and 8.27 µM
[47]
  GI50: 1.64 µM
  TGI: 3.31 µM
[48]
  GI50: 3.28 µM
  TGI: 14 µM and 38.9 µM
[49]
  GI50: 1.84 µM
  TGI: 3.61 µM and 12.3 µM
[50]
  TGI: 3.87 µM
[51]
  GI50: 4.66 µM
[52]
  TGI: 7.74 µM
[53]
  GI50: 1.78 µM
  TGI: 3.71 µM and 10.8 µM
[54]
  TGI: 10.5 µM
[55]
  GI50: 3.69 µM
  TGI: 14.7 µM and 16.9 µM
[56]
  GI50: 0.625 µM
  TGI: 2.46 µM and 10.3 µM
[57]
  GI50: 2.86 µM
  TGI: 14.8 µM and 47.1 µM
[58]
  TGI: 14.3 µM
[59]
  GI50: 1.92 µM
  TGI: 10.9 µM and 22.9 µM
[60]
  TGI: 54.1 µM
[61]
  GI50: 2.36 µM
  TGI: 6.25 µM and 30.7 µM
[62]
  GI50: 1.69 µM
  TGI: 3.23 µM and 7.89 µM
[63]
  GI50: 2.51 µM
  TGI: 10.7 µM and 15.5 µM

## COC(=O)C(C(=O)C(=O)Nc1ccc(C)cc1C)c1nc2ccc([N+](=O)[O-])cc2[nH]c1=O (configuration not stated)
[1]
  TGI: > 100 µM
[2]
  TGI: > 100 µM
[3]
  TGI: > 100 µM
[4]
  TGI: > 100 µM
[64]
  TGI: > 100 µM
[5]
  TGI: > 100 µM
[6]
  TGI: > 100 µM
[7]
  TGI: > 100 µM
[65]
  TGI: > 100 µM
[10]
  TGI: > 100 µM
[11]
  TGI: > 100 µM
[12]
  TGI: > 100 µM
[13]
  TGI: > 100 µM
[15]
  TGI: > 100 µM
[16]
  TGI: > 100 µM
[66]
  TGI: > 100 µM
[17]
  TGI: > 100 µM
[19]
  TGI: > 100 µM
[20]
  TGI: > 100 µM
[21]
  TGI: > 100 µM
[22]
  TGI: > 100 µM
[24]
  TGI: > 100 µM
[26]
  TGI: > 100 µM
[28]
  TGI: > 100 µM
[29]
  TGI: > 100 µM
[30]
  TGI: > 100 µM
[31]
  TGI: > 100 µM
[32]
  TGI: > 100 µM
[33]
  TGI: > 100 µM
[34]
  TGI: > 100 µM
[35]
  TGI: > 100 µM
[67]
  TGI: > 100 µM
[36]
  TGI: > 100 µM
[37]
  TGI: > 100 µM
[38]
  TGI: > 100 µM
[68]
  TGI: > 100 µM
[39]
  TGI: > 100 µM
[41]
  TGI: > 100 µM
[42]
  TGI: > 100 µM
[43]
  TGI: > 100 µM
[44]
  TGI: > 100 µM
[46]
  TGI: > 100 µM
[47]
  TGI: > 100 µM
[48]
  TGI: > 100 µM
[49]
  TGI: > 100 µM
[50]
  TGI: > 100 µM
[51]
  TGI: > 100 µM
[69]
  TGI: > 100 µM
[52]
  TGI: > 100 µM
[54]
  TGI: > 100 µM
[56]
  TGI: > 100 µM
[57]
  TGI: > 100 µM
[58]
  TGI: > 100 µM
[59]
  TGI: > 100 µM
[60]
  TGI: > 100 µM
[61]
  TGI: > 100 µM
[63]
  TGI: > 100 µM

## COC(=O)C[C@](O)(CCC(C)(C)O)C(=O)O[C@@H]1C(OC)=C[C@]23CCCN2CCc2cc4c(cc2[C@H]13)OCO4
[1]
  TGI: 0.15 µM
[3]
  TGI: 0.109 µM
[5]
  TGI: 7.01 µM
[6]
  TGI: 0.379 µM
[7]
  TGI: 0.701 µM
[9]
  TGI: 0.359 µM
[11]
  TGI: 1.12 µM
[12]
  TGI: 2.07 µM
[15]
  TGI: > 100 µM
[16]
  TGI: 0.743 µM
[66]
  TGI: 0.407 µM
[17]
  TGI: 0.255 µM
[19]
  TGI: 0.537 µM
[20]
  TGI: 0.518 µM
[21]
  TGI: 0.478 µM
[22]
  TGI: 0.323 µM
[24]
  TGI: 1.08 µM
[25]
  TGI: 59.8 µM
[26]
  TGI: 0.0597 µM
[28]
  TGI: 1.04 µM
[70]
  TGI: > 100 µM
[30]
  TGI: 0.28 µM
[31]
  TGI: 0.61 µM
[32]
  TGI: 1.07 µM
[33]
  TGI: 0.915 µM
[67]
  TGI: 0.0597 µM
[36]
  TGI: 0.202 µM
[37]
  TGI: 0.124 µM
[38]
  TGI: > 100 µM
[68]
  TGI: 0.74 µM
[39]
  TGI: 0.756 µM
[41]
  TGI: 0.45 µM
[42]
  TGI: 0.571 µM
[43]
  TGI: 0.426 µM
[44]
  TGI: 0.294 µM
[45]
  TGI: 0.133 µM
[46]
  TGI: 1.06 µM
[48]
  TGI: 0.496 µM
[49]
  TGI: 1.21 µM
[50]
  TGI: 0.0793 µM
[51]
  TGI: 0.506 µM
[69]
  TGI: 0.363 µM
[52]
  TGI: 0.131 µM
[53]
  TGI: 0.113 µM
[54]
  TGI: 0.102 µM
[55]
  TGI: 0.459 µM
[56]
  TGI: 0.653 µM
[57]
  TGI: 0.43 µM
[58]
  TGI: 0.26 µM
[59]
  TGI: 0.95 µM
[61]
  TGI: 0.59 µM
[62]
  TGI: 0.0855 µM
[63]
  TGI: 1.64 µM

From PubChem BioAssay (NCI)
